Experimental data: ChEMBL document CHEMBL4800729 (2021)

What was measured:
[1] = target: 3-hydroxy-3-methylglutaryl-coenzyme A reductase (Homo sapiens) (UniProt P04035); experiment: Inhibition of HMG-CoA Reductase at compound concentration of 10.0 uM in the Eurofins-Panlabs enzyme assay (Eurofins_assay_124010); parameters: substrate with concentration; details: Compound concentration 10.0 uM
Homo sapiens = species on record: Homo sapiens; experiment: Cdc7/cyclinB(h) Millipore kinase panel; details: Compound concentration 1.0 uM
[2] = target: Serine/threonine-protein kinase Chk2 (Homo sapiens) (UniProt O96017); experiment: CHK2(h) Millipore kinase panel; details: Compound concentration 1.0 uM
[3] = target: Casein kinase I isoform delta (Homo sapiens) (UniProt P48730); experiment: CK1delta(h) Millipore kinase panel; details: Compound concentration 1.0 uM
[4] = target: Serine/threonine-protein kinase 35 (Homo sapiens) (UniProt Q8TDR2); experiment: CLIK1(h) Millipore kinase panel; details: Compound concentration 1.0 uM
[5] = target: Ephrin type-B receptor 2 (Homo sapiens) (UniProt P29323); experiment: EphB2(h) Millipore kinase panel; details: Compound concentration 1.0 uM
[6] = target: Fibroblast growth factor receptor 2 (Homo sapiens) (UniProt P21802); experiment: FGFR2(h) Millipore kinase panel; details: Compound concentration 1.0 uM
[7] = target: Tyrosine-protein kinase Fgr (Homo sapiens) (UniProt P09769); experiment: Fgr(h) Millipore kinase panel; details: Compound concentration 1.0 uM
[8] = target: Macrophage colony-stimulating factor 1 receptor (Homo sapiens) (UniProt P07333); experiment: Fms(h) Millipore kinase panel; details: Compound concentration 1.0 uM
[9] = target: Homeodomain-interacting protein kinase 4 (Homo sapiens) (UniProt Q8NE63); experiment: HIPK4(h) Millipore kinase panel; details: Compound concentration 1.0 uM
[10] = target: Inhibitor of nuclear factor kappa-B kinase subunit beta (Homo sapiens) (UniProt O14920); experiment: IKKbeta(h) Millipore kinase panel; details: Compound concentration 1.0 uM
[11] = target: Mitogen-activated protein kinase 8 (Homo sapiens) (UniProt P45983); experiment: JNK1alpha1(h) Millipore kinase panel; details: Compound concentration 1.0 uM
[12] = target: Vascular endothelial growth factor receptor 2 (Homo sapiens) (UniProt P35968); experiment: KDR(h) Millipore kinase panel; details: Compound concentration 1.0 uM
Sequence of Vascular endothelial growth factor receptor 2 (Homo sapiens) (P35968 whole entry): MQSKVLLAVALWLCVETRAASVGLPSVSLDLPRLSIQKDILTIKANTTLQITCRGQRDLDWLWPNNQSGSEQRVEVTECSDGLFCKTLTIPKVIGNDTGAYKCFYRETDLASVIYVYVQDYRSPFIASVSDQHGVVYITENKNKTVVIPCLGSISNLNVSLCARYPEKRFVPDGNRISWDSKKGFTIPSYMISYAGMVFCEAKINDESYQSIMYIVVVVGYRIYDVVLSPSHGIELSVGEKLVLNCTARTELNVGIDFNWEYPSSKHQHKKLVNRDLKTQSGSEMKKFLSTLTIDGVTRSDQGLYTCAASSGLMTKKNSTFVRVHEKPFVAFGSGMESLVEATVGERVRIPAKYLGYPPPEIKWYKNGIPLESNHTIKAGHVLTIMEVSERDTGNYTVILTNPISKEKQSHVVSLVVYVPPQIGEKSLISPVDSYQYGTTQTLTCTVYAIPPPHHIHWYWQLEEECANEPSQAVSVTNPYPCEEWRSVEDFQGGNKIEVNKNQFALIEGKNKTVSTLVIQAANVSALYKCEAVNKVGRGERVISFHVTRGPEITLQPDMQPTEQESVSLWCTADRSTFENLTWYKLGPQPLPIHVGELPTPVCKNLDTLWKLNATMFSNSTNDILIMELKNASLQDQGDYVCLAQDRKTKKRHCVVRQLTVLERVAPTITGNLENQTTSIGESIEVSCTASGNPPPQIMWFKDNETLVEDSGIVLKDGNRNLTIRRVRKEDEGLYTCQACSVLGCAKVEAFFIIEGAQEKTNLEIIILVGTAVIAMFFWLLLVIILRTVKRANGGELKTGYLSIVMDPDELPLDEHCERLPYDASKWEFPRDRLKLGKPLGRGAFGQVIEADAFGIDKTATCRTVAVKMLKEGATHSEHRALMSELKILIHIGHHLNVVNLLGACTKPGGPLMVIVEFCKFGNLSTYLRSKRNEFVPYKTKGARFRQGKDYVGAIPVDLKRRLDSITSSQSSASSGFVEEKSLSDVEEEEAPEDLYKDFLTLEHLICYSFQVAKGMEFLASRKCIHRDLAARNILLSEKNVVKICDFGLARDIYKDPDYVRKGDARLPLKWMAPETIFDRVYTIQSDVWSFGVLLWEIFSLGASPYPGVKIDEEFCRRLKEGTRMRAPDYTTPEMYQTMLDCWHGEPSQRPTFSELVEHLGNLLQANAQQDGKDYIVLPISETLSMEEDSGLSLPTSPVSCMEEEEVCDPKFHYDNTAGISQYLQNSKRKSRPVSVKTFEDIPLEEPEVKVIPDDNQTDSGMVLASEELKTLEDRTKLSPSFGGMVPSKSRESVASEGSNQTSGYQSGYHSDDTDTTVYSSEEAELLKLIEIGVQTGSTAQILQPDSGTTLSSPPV

[13] = target: Serine/threonine-protein kinase LATS2 (Homo sapiens) (UniProt Q9NRM7); experiment: LATS2(h) Millipore kinase panel; details: Compound concentration 1.0 uM
Sequence of Serine/threonine-protein kinase LATS2 (Homo sapiens) (Q9NRM7 whole entry): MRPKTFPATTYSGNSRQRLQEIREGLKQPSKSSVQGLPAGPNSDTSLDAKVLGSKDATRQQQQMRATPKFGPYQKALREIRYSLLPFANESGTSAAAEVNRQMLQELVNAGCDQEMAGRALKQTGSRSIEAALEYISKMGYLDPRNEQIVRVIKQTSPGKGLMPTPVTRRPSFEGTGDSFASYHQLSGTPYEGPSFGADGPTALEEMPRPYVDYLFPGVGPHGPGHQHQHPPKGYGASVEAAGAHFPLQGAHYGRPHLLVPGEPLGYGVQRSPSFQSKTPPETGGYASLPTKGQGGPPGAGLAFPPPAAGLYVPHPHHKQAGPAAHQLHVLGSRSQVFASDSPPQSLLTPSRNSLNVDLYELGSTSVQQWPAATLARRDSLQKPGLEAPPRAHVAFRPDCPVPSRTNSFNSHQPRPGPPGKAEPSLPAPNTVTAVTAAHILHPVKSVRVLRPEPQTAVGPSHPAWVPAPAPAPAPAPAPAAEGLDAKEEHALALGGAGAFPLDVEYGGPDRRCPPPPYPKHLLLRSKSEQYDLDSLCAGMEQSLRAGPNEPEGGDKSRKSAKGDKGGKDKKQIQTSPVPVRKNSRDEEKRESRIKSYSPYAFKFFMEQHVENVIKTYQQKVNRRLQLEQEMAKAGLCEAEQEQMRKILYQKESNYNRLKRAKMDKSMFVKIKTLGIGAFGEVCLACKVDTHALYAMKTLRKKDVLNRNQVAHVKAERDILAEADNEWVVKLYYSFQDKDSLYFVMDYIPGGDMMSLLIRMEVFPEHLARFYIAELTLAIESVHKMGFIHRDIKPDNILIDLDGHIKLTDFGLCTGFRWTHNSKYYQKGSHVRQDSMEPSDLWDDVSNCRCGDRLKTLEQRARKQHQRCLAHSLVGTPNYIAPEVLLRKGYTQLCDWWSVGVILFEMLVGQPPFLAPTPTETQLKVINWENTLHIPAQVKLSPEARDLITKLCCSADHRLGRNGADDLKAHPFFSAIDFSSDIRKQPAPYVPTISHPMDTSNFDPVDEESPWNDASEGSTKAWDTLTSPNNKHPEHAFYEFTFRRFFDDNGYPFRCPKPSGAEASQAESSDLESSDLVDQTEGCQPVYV

[14] = target: Leucine-rich repeat serine/threonine-protein kinase 2 (Homo sapiens) (UniProt Q5S007); experiment: LRRK2(h) Millipore kinase panel; details: Compound concentration 1.0 uM
[15] = target: Tyrosine-protein kinase Lyn (Homo sapiens) (UniProt P07948); experiment: Lyn(h) Millipore kinase panel; details: Compound concentration 1.0 uM
[16] = target: Serine/threonine-protein kinase OSR1 (Homo sapiens) (UniProt O95747); experiment: OSR1(h) Millipore kinase panel; details: Compound concentration 1.0 uM
[17] = target: Ribosomal protein S6 kinase beta-1 (Homo sapiens) (UniProt P23443); experiment: p70S6K(h) Millipore kinase panel; details: Compound concentration 1.0 uM
[18] = target: Serine/threonine-protein kinase PAK 3 (Homo sapiens) (UniProt O75914); experiment: PAK3(h) Millipore kinase panel; details: Compound concentration 1.0 uM
[19] = target: Platelet-derived growth factor receptor alpha (Homo sapiens) (UniProt P16234); experiment: PDGFRalpha Millipore kinase panel; details: Compound concentration 1.0 uM
[20] = target: Phosphatidylinositol 4-phosphate 3-kinase C2 domain-containing subunit alpha (Homo sapiens) (UniProt O00443); experiment: PI3KC2a(h) Millipore kinase panel; details: Compound concentration 1.0 uM
[21] = target: Phosphatidylinositol 3-kinase C2 domain-containing subunit gamma (Homo sapiens) (UniProt O75747); experiment: PI3KC2g(h) Millipore kinase panel; details: Compound concentration 1.0 uM
[22] = target: Serine/threonine-protein kinase pim-3 (Homo sapiens) (UniProt Q86V86); experiment: Pim-3(h) Millipore kinase panel; details: Compound concentration 1.0 uM
[23] = target: Protein kinase C epsilon type (Homo sapiens) (UniProt Q02156); experiment: PKCepsilon(h) Millipore kinase panel; details: Compound concentration 1.0 uM
Sequence of Protein kinase C epsilon type (Homo sapiens) (Q02156 whole entry): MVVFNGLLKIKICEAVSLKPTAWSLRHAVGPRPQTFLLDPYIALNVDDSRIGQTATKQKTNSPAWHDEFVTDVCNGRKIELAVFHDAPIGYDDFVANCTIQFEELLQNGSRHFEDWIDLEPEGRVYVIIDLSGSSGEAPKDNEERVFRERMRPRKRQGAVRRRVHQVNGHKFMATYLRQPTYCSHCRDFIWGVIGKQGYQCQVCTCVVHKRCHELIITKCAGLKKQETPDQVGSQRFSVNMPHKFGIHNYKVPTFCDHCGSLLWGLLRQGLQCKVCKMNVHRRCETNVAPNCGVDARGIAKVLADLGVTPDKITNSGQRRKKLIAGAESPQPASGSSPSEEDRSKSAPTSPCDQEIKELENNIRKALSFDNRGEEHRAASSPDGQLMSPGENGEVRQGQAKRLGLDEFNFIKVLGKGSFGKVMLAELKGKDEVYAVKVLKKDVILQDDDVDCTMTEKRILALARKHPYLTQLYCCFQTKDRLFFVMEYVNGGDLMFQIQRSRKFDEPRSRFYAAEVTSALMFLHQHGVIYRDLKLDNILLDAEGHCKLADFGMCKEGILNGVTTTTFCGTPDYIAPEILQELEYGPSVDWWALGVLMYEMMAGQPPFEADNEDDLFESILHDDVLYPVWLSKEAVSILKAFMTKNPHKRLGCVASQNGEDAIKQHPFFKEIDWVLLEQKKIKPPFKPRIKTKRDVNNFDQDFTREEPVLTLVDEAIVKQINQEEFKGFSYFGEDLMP

[24] = target: Protein kinase C eta type (Homo sapiens) (UniProt P24723); experiment: PKCeta(h) Millipore kinase panel; details: Compound concentration 1.0 uM
[25] = target: Protein kinase C gamma type (Homo sapiens) (UniProt P05129); experiment: PKCgamma(h) Millipore kinase panel; details: Compound concentration 1.0 uM
[26] = target: MAP kinase-activated protein kinase 5 (Homo sapiens) (UniProt Q8IW41); experiment: PRAK(h) Millipore kinase panel; details: Compound concentration 1.0 uM
Sequence of MAP kinase-activated protein kinase 5 (Homo sapiens) (Q8IW41 whole entry): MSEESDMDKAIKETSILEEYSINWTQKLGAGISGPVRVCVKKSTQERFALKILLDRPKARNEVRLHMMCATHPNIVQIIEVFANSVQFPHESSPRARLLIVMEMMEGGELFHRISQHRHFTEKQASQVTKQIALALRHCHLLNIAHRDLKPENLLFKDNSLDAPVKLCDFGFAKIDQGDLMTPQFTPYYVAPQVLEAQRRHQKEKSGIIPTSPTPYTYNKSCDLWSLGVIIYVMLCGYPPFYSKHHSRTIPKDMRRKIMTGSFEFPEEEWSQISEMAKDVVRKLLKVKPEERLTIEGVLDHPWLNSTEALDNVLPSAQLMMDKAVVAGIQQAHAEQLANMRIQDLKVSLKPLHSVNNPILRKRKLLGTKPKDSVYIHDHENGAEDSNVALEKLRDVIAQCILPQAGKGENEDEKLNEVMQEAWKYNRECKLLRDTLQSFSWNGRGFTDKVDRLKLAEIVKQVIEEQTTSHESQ

[27] = target: Protein-tyrosine kinase 2-beta (Homo sapiens) (UniProt Q14289); experiment: Pyk2(h) Millipore kinase panel; details: Compound concentration 1.0 uM
[28] = target: Mitogen-activated protein kinase 11 (Homo sapiens) (UniProt Q15759); experiment: SAPK2b(h) Millipore kinase panel; details: Compound concentration 1.0 uM
[29] = target: Serine/threonine-protein kinase SIK2 (Homo sapiens) (UniProt Q9H0K1); experiment: SIK2(h) Millipore kinase panel; details: Compound concentration 1.0 uM
[30] = target: Serine/threonine-protein kinase 25 (Homo sapiens) (UniProt O00506); experiment: STK25(h) Millipore kinase panel; details: Compound concentration 1.0 uM
[31] = target: Tyrosine-protein kinase Tec (Homo sapiens) (UniProt P42680); experiment: Tec(h) activated Millipore kinase panel; details: Compound concentration 1.0 uM
[32] = target: Non-receptor tyrosine-protein kinase TYK2 (Homo sapiens) (UniProt P29597); experiment: TYK2(h) Millipore kinase panel; details: Compound concentration 1.0 uM
[33] = target: 5-hydroxytryptamine receptor 5A (Homo sapiens) (UniProt P47898); details: Compound concentration 10.0 uM
[34] = target: T1, Alpha-2B adrenergic receptor (Homo sapiens) (UniProt P18089); details: Compound concentration 10.0 uM
T1 sequence (whole entry): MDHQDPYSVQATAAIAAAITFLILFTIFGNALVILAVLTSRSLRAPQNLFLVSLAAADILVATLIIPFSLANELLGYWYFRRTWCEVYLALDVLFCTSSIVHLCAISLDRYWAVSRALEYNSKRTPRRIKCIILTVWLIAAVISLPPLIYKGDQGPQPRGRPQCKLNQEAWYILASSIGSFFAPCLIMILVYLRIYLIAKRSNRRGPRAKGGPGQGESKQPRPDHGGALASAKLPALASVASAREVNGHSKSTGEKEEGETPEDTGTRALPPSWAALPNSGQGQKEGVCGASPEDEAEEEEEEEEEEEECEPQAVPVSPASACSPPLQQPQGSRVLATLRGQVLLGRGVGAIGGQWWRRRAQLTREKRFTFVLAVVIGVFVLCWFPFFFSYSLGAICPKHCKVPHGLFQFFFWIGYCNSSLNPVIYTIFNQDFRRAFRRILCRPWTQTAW

[35] = target: Beta-3 adrenergic receptor (Homo sapiens) (UniProt P13945); details: Compound concentration 10.0 uM
[36] = target: Endothelin receptor type B (Homo sapiens) (UniProt P24530); details: Compound concentration 10.0 uM
[37] = target: T1, Alpha-2B adrenergic receptor (Homo sapiens); details: Compound concentration 10.0 uM; remark: listed apart in the source
[38] = target: Glutamate receptor 2 (Homo sapiens) (UniProt P42262); details: Rattus norvegicus; Compound concentration 10.0 uM
[39] = target: Type-1 angiotensin II receptor (Homo sapiens) (UniProt P30556); details: Compound concentration 10.0 uM
[40] = target: Gamma-aminobutyric acid type B receptor subunit 1 (Homo sapiens) (UniProt Q9UBS5); details: Rattus norvegicus; Compound concentration 10.0 uM
[41] = target: Phosphatidylinositol 5-phosphate 4-kinase type-2 alpha (Homo sapiens) (UniProt P48426); details: Compound concentration 1.0 uM

Measured: inhibition

Sequence of 3-hydroxy-3-methylglutaryl-coenzyme A reductase (Homo sapiens) (P04035 whole entry): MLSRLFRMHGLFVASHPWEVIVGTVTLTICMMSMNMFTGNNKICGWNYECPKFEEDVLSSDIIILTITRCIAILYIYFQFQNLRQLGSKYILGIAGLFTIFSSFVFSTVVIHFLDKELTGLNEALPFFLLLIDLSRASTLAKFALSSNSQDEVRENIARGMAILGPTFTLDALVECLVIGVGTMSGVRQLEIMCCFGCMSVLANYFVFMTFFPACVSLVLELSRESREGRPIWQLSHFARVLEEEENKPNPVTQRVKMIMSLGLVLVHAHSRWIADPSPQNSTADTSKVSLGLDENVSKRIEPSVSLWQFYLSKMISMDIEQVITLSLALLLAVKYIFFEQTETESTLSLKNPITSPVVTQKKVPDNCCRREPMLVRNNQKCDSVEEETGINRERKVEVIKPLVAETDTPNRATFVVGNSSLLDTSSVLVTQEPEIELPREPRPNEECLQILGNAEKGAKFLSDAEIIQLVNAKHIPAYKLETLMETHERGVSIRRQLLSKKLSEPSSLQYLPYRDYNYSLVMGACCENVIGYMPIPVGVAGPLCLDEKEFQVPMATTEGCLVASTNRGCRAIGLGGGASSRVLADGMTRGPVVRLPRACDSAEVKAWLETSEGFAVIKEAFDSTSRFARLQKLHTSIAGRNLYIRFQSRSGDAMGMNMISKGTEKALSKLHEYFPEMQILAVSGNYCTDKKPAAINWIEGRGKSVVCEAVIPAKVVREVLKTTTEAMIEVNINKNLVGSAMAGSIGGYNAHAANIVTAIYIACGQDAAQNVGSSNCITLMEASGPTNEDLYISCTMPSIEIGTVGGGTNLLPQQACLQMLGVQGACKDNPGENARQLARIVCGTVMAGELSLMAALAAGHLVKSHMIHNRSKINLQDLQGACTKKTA

CC[C@@H](Nc1c(C#N)c(-c2ccc(-c3cccc(C)c3F)cc2)nc2cnccc12)C(=O)O [BAY-091]
inactive: [1] -7% | Homo sapiens 3.59% | [2] 5.38% | [3] 9.07% | [4] 9.55% | [5] 1.4% | [6] 9.63% | [7] 5.05% | [8] -5.04% | [9] 15.7% | [10] 2.85% | [11] 4.24% | [12] 50.1% | [13] 1.83% | [14] 12.9% | [15] 12.5% | [16] -3.86% | [17] 4.3% | [18] 4.13% | [19] 9.33% | [20] 4.18% | [21] 25.4% | [22] 1.67% | [23] -4.26% | [24] 3.77% | [25] -0.39% | [26] 23.6% | [27] 10.7% | [28] -2.08% | [29] 3.68% | [30] 3.01% | [31] 4.62% | [32] 1.22% | [33] 14.8% | [34] -1.14% | [35] -2.13% | [36] 1% | [37] -2% | [38] -4% | [39] 22% | [40] 5% | [41] 142%
